Source: US20250041294A1, “Synergistic compositions for use in the treatment of cancer” (Sartar Therapeutics Oy, priority 2021, published 2025)

tested on: GIST882, GOT3 and SA4 cell lines; assay: High throughput drug sensitivity and resistance test, average over cell lines (BAY2666605 combination); type: cell-based; conditions: not given
Description: (§1) Cell lines. PDE3A-positive (GIST882, SA4, and GOT3) and PDE3A-negative cell lines (93TT449, 94T778, LPS141, MLS17656-92, MLS402-91, and SW872) were cultured in RPMI Medium 1640 (Gibco) with 5-, 10- or 20% fetal bovine serum (FBS, gibco), 100 U/mL of penicillin, 100 […] and 0.03 mg/mL of L-glutamine (Pen Strep Glut, Gibco, 10378-016) in a humidified, 5% CO2 atmosphere at 37° C.
(§2) High throughput drug sensitivity and resistance test. A sensitivity and resistance of cancer cell lines to 528 compounds were investigated in 9 cell lines (GIST882, SA4, GOT3, 93TT449, 94T778, LPS141, MLS17656-92, MLS402-91, and SW872). In addition, same compounds were investigated together with anagrelide hydrochloride (100 nM) treatment in the PDE3A low expressing cell lines SA4 and GOT3, and with BAY2666605 (40 nM) in all PDE3A-positive cell lines GIST882, SA4 and GOT3. The compounds were dissolved in 100% dimethyl sulfoxide or water and plated in 10-fold dilutions covering a 10,000-fold concentration range on flat clear bottom 384-well microplates as described in detail earlier (Pulkka O P, et al 2019). A cell viability was measured after 72 hours using CellTiter-Glo Cell Viability assay (Promega Inc.) and PHERAstar FS plate reader (BMG Labtech). The data were normalized to negative (0.01% dimethyl sulfoxide only) and positive (100 μmol/L benzethonium chloride) controls.
(§3) A four-parameter logistic dose-response curves were estimated by using the Marquardt-Levenberg algorithm and Breeze analysis platform. Drug responses to the test compounds were measured using the drug sensitivity score (DSS). Drug synergy partners, which were common in investigated cell lines were identified as following: DSS value of a single agent was subtracted from the DSS value of anagrelide-drug combination in single cell lines. […] The analysis was repeated by using BAY2666605 as a PDE3A modulator.

Structure (SMILES) | synergy in high-throughput screening (in words)
O=C(CCCCCCNC(=O)c1cnc(N(c2ccccc2)c2ccccc2)nc1)NO [Rocilinostat, rocilinostat] | synergistic

same assay, conditions: BAY2666605 combination, average of GIST882, SA4 and GOT3; aDSS higher than 3.0 = synergy

Structure (SMILES) | Average DSS (aDSS)
CN1CCc2c(c3ccccc3n2Cc2ccc(C(=O)NO)cc2)C1 [Tubastatin A, tubastatin A] | 4.4
CN(C)CCCOc1ccc(-c2ccc3ncc4c(c3c2)n(C2CCOCC2)c(=O)n4C)cn1 [AZD0156] | 3.1
COc1c(OCCCN2CCOCC2)ccc2c1N=C(NC(=O)c1cnc(N)nc1)N1CCN=C21 [Copanlisib, copanlisib] | 4.5
O=C(/C=C\n1cnc(-c2cc(C(F)(F)F)cc(C(F)(F)F)c2)n1)NNc1cnccn1 [Selinexor] | 4.2
O=C(CCCCCCNC(=O)c1cnc(N(c2ccccc2)c2ccccc2)nc1)NO [Rocilinostat, rocilinostat] | 3.3
C=C(c1ccc(C(=O)O)cc1)c1cc2c(cc1C)C(C)(C)CCC2(C)C [Bexarotene, bexarotene] | 3.9
NC(=O)/C(=C/n1cnc(-c2cc(C(F)(F)F)cc(C(F)(F)F)c2)n1)c1cncnc1 [Eltanexor, eltanexor] | 3.1
COc1ccc(-c2ccc3ncc4c(c3c2)n(-c2ccc(N3CCNCC3)c(C(F)(F)F)c2)c(=O)n4C)cn1 [NVP-BGT226] | 4.8
CO[C@@H](C)Cn1c(=O)n(C)c2cnc3ccc(-c4cncc(C(C)(C)O)c4)cc3c21 [LY3023414] | 4.4
C[C@@]1(C(=O)Nc2ccc(F)nc2)CCCN1c1nc(Nc2cc(C3CC3)n[nH]2)c2cccn2n1 [BMS-754807] | 4.2

same assay, conditions: with anagrelide (GOT3, SA4) or BAY2666605 (GIST882, GOT3, SA4)

Structure (SMILES) | synergy in high-throughput screening (in words)
CN1CCc2c(c3ccccc3n2Cc2ccc(C(=O)NO)cc2)C1 [Tubastatin A, tubastatin A] | synergistic
CN(C)CCCOc1ccc(-c2ccc3ncc4c(c3c2)n(C2CCOCC2)c(=O)n4C)cn1 [AZD0156] | synergistic
COc1c(OCCCN2CCOCC2)ccc2c1N=C(NC(=O)c1cnc(N)nc1)N1CCN=C21 [Copanlisib, copanlisib] | synergistic
O=C(/C=C\n1cnc(-c2cc(C(F)(F)F)cc(C(F)(F)F)c2)n1)NNc1cnccn1 [Selinexor] | synergistic
C=C(c1ccc(C(=O)O)cc1)c1cc2c(cc1C)C(C)(C)CCC2(C)C [Bexarotene, bexarotene] | synergistic
NC(=O)/C(=C/n1cnc(-c2cc(C(F)(F)F)cc(C(F)(F)F)c2)n1)c1cncnc1 [Eltanexor, eltanexor] | synergistic
COc1ccc(-c2ccc3ncc4c(c3c2)n(-c2ccc(N3CCNCC3)c(C(F)(F)F)c2)c(=O)n4C)cn1 [NVP-BGT226] | synergistic
CO[C@@H](C)Cn1c(=O)n(C)c2cnc3ccc(-c4cncc(C(C)(C)O)c4)cc3c21 [LY3023414] | synergistic
C[C@@]1(C(=O)Nc2ccc(F)nc2)CCCN1c1nc(Nc2cc(C3CC3)n[nH]2)c2cccn2n1 [BMS-754807] | synergistic

tested on: GIST882 cell line; assay: High throughput drug sensitivity and resistance test (CellTiter-Glo, 72 hours); type: cell-based; conditions: drug combined with BAY2666605 (40 nM) minus drug alone
Description: High throughput drug sensitivity and resistance test. […] In addition, same compounds were investigated together with anagrelide hydrochloride (100 nM) treatment in the PDE3A low expressing cell lines SA4 and GOT3, and with BAY2666605 (40 nM) in all PDE3A-positive cell lines GIST882, SA4 and GOT3. […] A cell viability was measured after 72 hours using CellTiter-Glo Cell Viability assay (Promega Inc.) and PHERAstar FS plate reader (BMG Labtech). The data were normalized to negative (0.01% dimethyl sulfoxide only) and positive (100 μmol/L benzethonium chloride) controls.
as §3

Structure (SMILES) | GIST882 cell line: DSS(combo (BAY2666605))-DSS(drug)
CN1CCc2c(c3ccccc3n2Cc2ccc(C(=O)NO)cc2)C1 [Tubastatin A, tubastatin A] | −0.3
CN(C)CCCOc1ccc(-c2ccc3ncc4c(c3c2)n(C2CCOCC2)c(=O)n4C)cn1 [AZD0156] | 7.5
COc1c(OCCCN2CCOCC2)ccc2c1N=C(NC(=O)c1cnc(N)nc1)N1CCN=C21 [Copanlisib, copanlisib] | 6.8
O=C(/C=C\n1cnc(-c2cc(C(F)(F)F)cc(C(F)(F)F)c2)n1)NNc1cnccn1 [Selinexor] | 7.9
O=C(CCCCCCNC(=O)c1cnc(N(c2ccccc2)c2ccccc2)nc1)NO [Rocilinostat, rocilinostat] | 1.4
C=C(c1ccc(C(=O)O)cc1)c1cc2c(cc1C)C(C)(C)CCC2(C)C [Bexarotene, bexarotene] | 6.3
NC(=O)/C(=C/n1cnc(-c2cc(C(F)(F)F)cc(C(F)(F)F)c2)n1)c1cncnc1 [Eltanexor, eltanexor] | 5.4
COc1ccc(-c2ccc3ncc4c(c3c2)n(-c2ccc(N3CCNCC3)c(C(F)(F)F)c2)c(=O)n4C)cn1 [NVP-BGT226] | 6.2
CO[C@@H](C)Cn1c(=O)n(C)c2cnc3ccc(-c4cncc(C(C)(C)O)c4)cc3c21 [LY3023414] | 2.4
C[C@@]1(C(=O)Nc2ccc(F)nc2)CCCN1c1nc(Nc2cc(C3CC3)n[nH]2)c2cccn2n1 [BMS-754807] | 0.7

tested on: GOT3 cell line; assay: as above; type: cell-based; conditions: drug combined with BAY2666605 (40 nM) minus drug alone, GOT3
Description: as §1, §2, §3

Structure (SMILES) | GOT3 cell line: DSS(combo (BAY2666605))-DSS(drug)
CN1CCc2c(c3ccccc3n2Cc2ccc(C(=O)NO)cc2)C1 [Tubastatin A, tubastatin A] | 2.8
CN(C)CCCOc1ccc(-c2ccc3ncc4c(c3c2)n(C2CCOCC2)c(=O)n4C)cn1 [AZD0156] | −1.2
COc1c(OCCCN2CCOCC2)ccc2c1N=C(NC(=O)c1cnc(N)nc1)N1CCN=C21 [Copanlisib, copanlisib] | −1.4
O=C(/C=C\n1cnc(-c2cc(C(F)(F)F)cc(C(F)(F)F)c2)n1)NNc1cnccn1 [Selinexor] | −0.7
O=C(CCCCCCNC(=O)c1cnc(N(c2ccccc2)c2ccccc2)nc1)NO [Rocilinostat, rocilinostat] | 0.9
C=C(c1ccc(C(=O)O)cc1)c1cc2c(cc1C)C(C)(C)CCC2(C)C [Bexarotene, bexarotene] | −1.1
NC(=O)/C(=C/n1cnc(-c2cc(C(F)(F)F)cc(C(F)(F)F)c2)n1)c1cncnc1 [Eltanexor, eltanexor] | 0.8
COc1ccc(-c2ccc3ncc4c(c3c2)n(-c2ccc(N3CCNCC3)c(C(F)(F)F)c2)c(=O)n4C)cn1 [NVP-BGT226] | 0.1
CO[C@@H](C)Cn1c(=O)n(C)c2cnc3ccc(-c4cncc(C(C)(C)O)c4)cc3c21 [LY3023414] | 1.5
C[C@@]1(C(=O)Nc2ccc(F)nc2)CCCN1c1nc(Nc2cc(C3CC3)n[nH]2)c2cccn2n1 [BMS-754807] | 4.4

tested on: SA4 cell line; assay: as above; type: cell-based; conditions: drug combined with BAY2666605 (40 nM) minus drug alone, SA4
Description: as §1, §2, §3

Structure (SMILES) | SA4 cell line: DSS(combo (BAY2666605))-DSS(drug)
CN1CCc2c(c3ccccc3n2Cc2ccc(C(=O)NO)cc2)C1 [Tubastatin A, tubastatin A] | 10.7
CN(C)CCCOc1ccc(-c2ccc3ncc4c(c3c2)n(C2CCOCC2)c(=O)n4C)cn1 [AZD0156] | 3
COc1c(OCCCN2CCOCC2)ccc2c1N=C(NC(=O)c1cnc(N)nc1)N1CCN=C21 [Copanlisib, copanlisib] | 8.1
O=C(/C=C\n1cnc(-c2cc(C(F)(F)F)cc(C(F)(F)F)c2)n1)NNc1cnccn1 [Selinexor] | 5.4
O=C(CCCCCCNC(=O)c1cnc(N(c2ccccc2)c2ccccc2)nc1)NO [Rocilinostat, rocilinostat] | 7.5
C=C(c1ccc(C(=O)O)cc1)c1cc2c(cc1C)C(C)(C)CCC2(C)C [Bexarotene, bexarotene] | 6.4
NC(=O)/C(=C/n1cnc(-c2cc(C(F)(F)F)cc(C(F)(F)F)c2)n1)c1cncnc1 [Eltanexor, eltanexor] | 3.1
COc1ccc(-c2ccc3ncc4c(c3c2)n(-c2ccc(N3CCNCC3)c(C(F)(F)F)c2)c(=O)n4C)cn1 [NVP-BGT226] | 8.1
CO[C@@H](C)Cn1c(=O)n(C)c2cnc3ccc(-c4cncc(C(C)(C)O)c4)cc3c21 [LY3023414] | 9.3
C[C@@]1(C(=O)Nc2ccc(F)nc2)CCCN1c1nc(Nc2cc(C3CC3)n[nH]2)c2cccn2n1 [BMS-754807] | 7.5
